Assay results from patent US9597295B2, “Diene compounds for use in human epidermal cell repair, and pharmaceutical and cosmetic compositions containing them” (GIULIANI S.P.A., priority 2009, dated 2017).

What was measured:
[1] = tested on: cK-19 (KRT19) mRNA; test: cK-19 mRNA expression by real-time PCR in reconstructed human epidermis; format: cell-based; conditions: RHE, single 20 μl dose at 0.1%
Method: (§1) The RHE (SkinEthic®) 0.5 cm^2, which reproduces the morphology of the epidermis, was accurately characterised: a fully-differentiated epidermis develops after 17 days of airlift culture of NHK (normal human keratinocytes) from skin biopsies in a given medium (MCDB153).
(§2) On arrival, the RHE (day 11) were removed from the agarose nutrient solution under a flow of sterile air. The inserts were rapidly plated in six-well plates previously filled with 1 ml of growth medium each at 37° C., […], and 90% relative humidity, taking care to avoid any formation of bubbles underneath the insert.
The substances tested were solubilised in DMSO (Sigma) to obtain a final concentration of 0.2%.
This stock solution was diluted in PBS to achieve the 0.1% of active principle.
The solution was applied with care to each tissue using a micro-pipette in a single dose of 20 μl.
The method is based on the capacity of the glass fibres to bind the nucleic acid in chaotropic concentrated saline solutions. The samples are disrupted in a highly-concentrated solution of guanidinium salts that lyse the cells and inactivate the endogenous RNase. The lysate is diluted with ethanol to make the […] competent for binding with the glass fibre of the filter in the filter cartridge. The RNA binds to the filter, while the other cell components slide freely through the filter. The filter is then washed three times and the RNA is eluted in a solution with a very low ionic strength.
The rationale in this method is based on the use of random primers to begin cDNA synthesis that ensure an efficient synthesis of the first helix of all the RNA molecules present.
(§3) The “Applied Biosystems 7500 real-time PCR” instrument uses PCR chemistry based on fluorescence, the TaqMan assay.
(§4) This technique uses Taqman probes to identify the fluorescent signal: it is highly sensitive and consists in amplifying and quantifying a specific nucleic acid sequence. The PCR product is detected in real time. The DNA, cDNA or RNA are quantified by determining the cycle in which the PCR product can be identified first, and therefore not when the reaction has reached saturation. The product is quantified by detecting the fluorescence measured in each cycle: the entity of the signal is directly proportional to the quantity of product amplified.
The relative quantification is measured from the difference between the expression of the nucleic acid sequence of a sample being tested and the same sequence in the calibration sample.
Each biological sample was processed in triplicate. The Taqman gene expression assay and cDNA (25 ng) were added to the “2× TaqMan Universal PCR Master Mix”, making up to a total volume of 25 μl.
The tissues were homogenised in 300 μl of lysis buffer for […] extraction.
On day 1, the RHE were 12 days old. The substances being tested (in duplicate) and the controls were applied in a single dose (20 μl). The RHE were then incubated without further treatment for 24 hours.

[2] = tested on: IL-1α; test: IL-1α quantification in the growth medium using ELISA; format: cell-based, human; conditions: RHE growth medium, 0.1% single dose, after 24 h
Method: The release of IL-1α was assayed in 200 μl of the growth medium underneath the RHE at preset sampling times using a highly-sensitive, specific ELISA (enzyme-linked immunosorbent assay) kit according to the manufacturer's instructions. The end-product was quantified at 450 nm.
The underlying growth medium for each RHE was collected immediately after the recovery time and stored at −20° C. in plastic cryo-vials.
Before the test, the medium was conditioned at room temperature. The results were expressed as pg/ml of IL-1α. Concentrations between 3.9 and 250 pg/ml were considered within the range of sensitivity.

[3] = tested on: reconstructed human epidermis (RHE); test: H&E histology of reconstructed human epidermis; format: cell-based; conditions: single acute administration at 0.1%
From the text: as §1
At the end of the study period, the tissues were washed with PBC, fixed in 10% buffered formalin and prepared for histological examination.
The tissue was embedded in paraffin blocks and cut into sections (3-5μ thick) on a microtome. The sections were then transferred to slides, deparaffinised and rehydrated, then stained with haematoxylin and eosin (H&E).
The samples for histology were analysed under the microscope. The overall morphology and any changes by comparison with the negative controls were assessed and recorded in the laboratory report.
The samples for histology were analysed under the Leica microscope DM2500 and recorded using the Leica Application Suite (LAS) software.

[4] = tested on: cK-14 (KRT 14) mRNA; test: cK-14 mRNA expression by real-time PCR in reconstructed human epidermis; format: cell-based; conditions: RHE, 0.1%, during the whole study, by comparison with the controls
Method: as §1, §2
The substances tested were solubilised in DMSO (Sigma) to obtain a final concentration of 0.2%. […]
as §3
as §4, with “amplified. […]” for “amplified.”

[5] = tested on: cK-10; test: cK-10 immunohistochemical expression in the RHE (separate study); format: cell-based, human; conditions: day 17 of differentiation, versus untreated controls
From the text: Finally, in a separate study conducted using similar methods, the expression of cK-10 in the RHE was studied on days 15 and 17 of differentiation, recorded by its immunohistochemical expression. cK-10 is a marker of the terminal differentiation of the keratinocytes at granular and spinal level.

[6] = 24 hours of treatment, day 13, calibrated to DMSO controls
[7] = 48 hours of treatment, day 15, by comparison with the PBS control
[8] = 120 hours of treatment, day 17 (final differentiation), by comparison with the controls

SMILES | cK-19 mRNA gene expression [1, 6] | cK-19 mRNA gene expression [1, 7] | cK-19 mRNA gene expression [1, 8] | release of IL-1α [2] | toxicity (histomorphological analysis, cK-16 expression, IL-1α release) [3] | cK-14 expression (marker of mitotic activity) [4] | cK-10 immunohistochemical expression [5]
C/C=C/C=C/C=C/C(=O)OCC [DPRT, 2E,4E,6E-Octa-2,4,6-trienoic acid ethyl ester] | much diminished | not diminished | up-regulation | no such release | no relevant signs of toxicity |  | 
C/C=C/C=C/C=C/CO [PRT, 2E,4E,6E-Octatrien-1-ol] |  |  |  | no such release | toxicity similar for retinol and 2,4,6-octatrien-1-ol |  | 
CC1=C(/C=C/C(C)=C/C=C/C(C)=C/CO)C(C)(C)CCC1 [RET, Retinol] | regulation level resembling the values of the calibrator | diminished | up-regulation | early but very low release | toxicity similar for retinol and 2,4,6-octatrien-1-ol | did not differ significantly | negative
